Data published in ChEMBL document CHEMBL5518185, “Design, synthesis and antitumor activity of 4-arylamine substituted pyrimidine derivatives as noncovalent EGFR inhibitors overcoming C797S mutation” (Eur J Med Chem, 2024).
Values belong to the compound of their own block, whether it stands above or below them. Calls of active or inactive are those of the source. The rule behind the calls is not given here.

Assays:
NCI-H1975 = assay: Antiproliferative activity against human NCI-H1975 cells assessed as inhibition of cell growth measured after 72 hrs by MTT assay; assay type: functional, cell-based; conditions: NCI-H1975, 72 h
[1] = test system: Epidermal growth factor receptor (Homo sapiens), P00533 [UNDEFINED MUTATION]; conditions: dose 30.0 nM
HCC827 [2] = assay: Antiproliferative activity against human HCC827 cells assessed as inhibition of cell growth measured after 72 hrs by MTT assay; assay type: functional, cell-based; conditions: HCC827, 72 h
A549 = assay: Antiproliferative activity against human A549 cells assessed as inhibition of cell growth measured after 72 hrs by MTT assay; assay type: functional, cell-based; conditions: A549, 72 h
[3] = test system: Epidermal growth factor receptor (Homo sapiens), P00533 [UNDEFINED MUTATION]; conditions: dose 100.0 nM
[4] = Inhibition of ERK (unknown origin) by HTRF assay relative to control; conditions: Homo sapiens; concentration not given here
Homo sapiens [5] = organism: Homo sapiens; assay: Inhibition of Akt (unknown origin) by HTRF assay relative to control; conditions: concentration not given here
[6] = biological target: Mast/stem cell growth factor receptor Kit (Homo sapiens) (UniProt P10721); assay: Inhibition of c-kit (unknown origin) by HTRF assay relative to control; conditions: concentration not given here
[7] = biological target: Platelet-derived growth factor receptor alpha (Homo sapiens) (UniProt P16234); assay: Inhibition of PDGFR alpha (unknown origin) by HTRF assay relative to control; conditions: concentration not given here
[8] = biological target: Tyrosine-protein kinase ABL1 (Homo sapiens) (UniProt P00519); assay: Inhibition of Abl (unknown origin) by HTRF assay relative to control; conditions: concentration not given here
[9] = biological target: Insulin-like growth factor 1 receptor (Homo sapiens) (UniProt P08069); assay: Inhibition of IGF-1R (unknown origin) by HTRF assay relative to control; conditions: concentration not given here
[10] = biological target: Serine/threonine-protein kinase mTOR (Homo sapiens) (UniProt P42345); assay: Inhibition of mTOR (unknown origin) by HTRF assay relative to control; conditions: concentration not given here
[11] = biological target: Epidermal growth factor receptor (Homo sapiens, UniProt P00533, C797S/EX19DEL/T790M); assay: Inhibition of EGFR Del19/T790M/C797S triple mutant (unknown origin) preincubated for 10 mins followed by substrate addition and measured after 50 mins in presence of ATP by HTRF assay
[12] = biological target: Proto-oncogene tyrosine-protein kinase ROS (Homo sapiens) (UniProt P08922); assay: Inhibition of ROS (unknown origin) by HTRF assay relative to control; conditions: concentration not given here
HCC827 [13] = assay: Induction of cell cycle arrest in human HCC827 cells assessed as accumulation of cells at G0/G1 phase at 10 nM measured after 24 hrs by PI staining based flow cytometry analysis (reference value: 54.36%); assay type: functional
HCC827 [14] = assay: Induction of cell cycle arrest in human HCC827 cells assessed as accumulation of cells at S phase at 10 nM measured after 24 hrs by PI staining based flow cytometry analysis (reference value: 28.81%); assay type: functional
[15] = Cytotoxicity against human L02 cells assessed as inhibition of cell viability measured after 72 hrs by MTT assay; assay type: toxicity, cell-based
[16] = biological target: Epidermal growth factor receptor (Homo sapiens, UniProt P00533, L858R/T790M); assay: Inhibition of EGFR L858R/T790M (unknown origin) preincubated for 10 mins followed by substrate addition and measured after 50 mins in presence of ATP by HTRF assay
HCC827 [17] = assay: Induction of cell cycle arrest in human HCC827 cells assessed as accumulation of cells at G2/M phase at 100 nM measured after 24 hrs by PI staining based flow cytometry analysis (reference value: 16.83%); assay type: functional
Homo sapiens [18] = organism: Homo sapiens; assay: Inhibition of FGFR (unknown origin) by HTRF assay relative to control; conditions: concentration not given here
[19] = biological target: Dual specificity mitogen-activated protein kinase kinase; MEK1/2 (Homo sapiens) (UniProt P36507+Q02750); assay: Inhibition of MEK1/2 (unknown origin) by HTRF assay relative to control; assay type: protein assay; conditions: concentration not given here
[20] = biological target: T1, Epidermal growth factor receptor (Homo sapiens, UniProt P00533); assay: Inhibition of wild type EGFR (unknown origin) at 100 nM preincubated for 10 mins followed by substrate addition and measured after 50 mins in presence of ATP by HTRF assay relative to control; conditions: time 60.0 min
[21] = biological target: Tyrosine-protein kinase BTK (Homo sapiens) (UniProt Q06187); assay: Inhibition of BTK (unknown origin) by HTRF assay relative to control; conditions: concentration not given here
HCC827 [22] = assay: Induction of cell cycle arrest in human HCC827 cells assessed as accumulation of cells at S phase at 30 nM measured after 24 hrs by PI staining based flow cytometry analysis (reference value: 28.81%); assay type: functional
HCC827 [23] = assay: Induction of cell cycle arrest in human HCC827 cells assessed as accumulation of cells at G0/G1 phase at 30 nM measured after 24 hrs by PI staining based flow cytometry analysis (reference value: 54.36%); assay type: functional
[24] = biological target: Proto-oncogene tyrosine-protein kinase Src (Homo sapiens) (UniProt P12931); assay: Inhibition of Src (unknown origin) by HTRF assay relative to control; conditions: concentration not given here
[25] = Cytotoxicity against human 2BS cells assessed as inhibition of cell viability measured after 72 hrs by MTT assay; assay type: toxicity, cell-based
[26] = biological target: RAF proto-oncogene serine/threonine-protein kinase (Homo sapiens) (UniProt P04049); assay: Inhibition of c-RAF (unknown origin) by HTRF assay relative to control; conditions: concentration not given here
[27] = biological target: Epidermal growth factor receptor (Homo sapiens, UniProt P00533, EX19DEL/T790M); assay: Inhibition of EGFR Del19/T790M (unknown origin) preincubated for 10 mins followed by substrate addition and measured after 50 mins in presence of ATP by HTRF assay
HCC827 [28] = assay: Induction of cell cycle arrest in human HCC827 cells assessed as accumulation of cells at G0/G1 phase at 100 nM measured after 24 hrs by PI staining based flow cytometry analysis (reference value: 54.36%); assay type: functional
[29] = biological target: Epidermal growth factor receptor (Homo sapiens, UniProt P00533, C797S/L858R/T790M); assay: Inhibition of EGFR L858R/T790M/C797S triple mutant (unknown origin) preincubated for 10 mins followed by substrate addition and measured after 50 mins in presence of ATP by HTRF assay
HCC827 [30] = assay: Inhibition of colony formation in human HCC827 cells at 10 to 100 nM measured after 14 days by crystal violet staining based analysis; assay type: functional, cell-based; conditions: dose 10-100 nM, time 14.0 day
HCC827 [31] = assay: Induction of cell cycle arrest in human HCC827 cells assessed as accumulation of cells at S phase at 100 nM measured after 24 hrs by PI staining based flow cytometry analysis (reference value: 28.81%); assay type: functional
HCC827 [32] = assay: Induction of cell cycle arrest in human HCC827 cells assessed as accumulation of cells at G2/M phase at 30 nM measured after 24 hrs by PI staining based flow cytometry analysis (reference value: 16.83%); assay type: functional
[33] = biological target: T1, Epidermal growth factor receptor; assay: Inhibition of wild type EGFR (unknown origin) preincubated for 10 mins followed by substrate addition and measured after 50 mins in presence of ATP by HTRF assay
Homo sapiens [34] = organism: Homo sapiens; assay: Inhibition of VGFR (unknown origin) by HTRF assay relative to control; conditions: concentration not given here
HCC827 [35] = assay: Induction of cell cycle arrest in human HCC827 cells assessed as accumulation of cells at G2/M phase at 10 nM measured after 24 hrs by PI staining based flow cytometry analysis (reference value: 16.83%); assay type: functional

Sequence of Epidermal growth factor receptor (Homo sapiens), P00533 [UNDEFINED MUTATION] (P00533 whole entry, looked up, stated change not applied): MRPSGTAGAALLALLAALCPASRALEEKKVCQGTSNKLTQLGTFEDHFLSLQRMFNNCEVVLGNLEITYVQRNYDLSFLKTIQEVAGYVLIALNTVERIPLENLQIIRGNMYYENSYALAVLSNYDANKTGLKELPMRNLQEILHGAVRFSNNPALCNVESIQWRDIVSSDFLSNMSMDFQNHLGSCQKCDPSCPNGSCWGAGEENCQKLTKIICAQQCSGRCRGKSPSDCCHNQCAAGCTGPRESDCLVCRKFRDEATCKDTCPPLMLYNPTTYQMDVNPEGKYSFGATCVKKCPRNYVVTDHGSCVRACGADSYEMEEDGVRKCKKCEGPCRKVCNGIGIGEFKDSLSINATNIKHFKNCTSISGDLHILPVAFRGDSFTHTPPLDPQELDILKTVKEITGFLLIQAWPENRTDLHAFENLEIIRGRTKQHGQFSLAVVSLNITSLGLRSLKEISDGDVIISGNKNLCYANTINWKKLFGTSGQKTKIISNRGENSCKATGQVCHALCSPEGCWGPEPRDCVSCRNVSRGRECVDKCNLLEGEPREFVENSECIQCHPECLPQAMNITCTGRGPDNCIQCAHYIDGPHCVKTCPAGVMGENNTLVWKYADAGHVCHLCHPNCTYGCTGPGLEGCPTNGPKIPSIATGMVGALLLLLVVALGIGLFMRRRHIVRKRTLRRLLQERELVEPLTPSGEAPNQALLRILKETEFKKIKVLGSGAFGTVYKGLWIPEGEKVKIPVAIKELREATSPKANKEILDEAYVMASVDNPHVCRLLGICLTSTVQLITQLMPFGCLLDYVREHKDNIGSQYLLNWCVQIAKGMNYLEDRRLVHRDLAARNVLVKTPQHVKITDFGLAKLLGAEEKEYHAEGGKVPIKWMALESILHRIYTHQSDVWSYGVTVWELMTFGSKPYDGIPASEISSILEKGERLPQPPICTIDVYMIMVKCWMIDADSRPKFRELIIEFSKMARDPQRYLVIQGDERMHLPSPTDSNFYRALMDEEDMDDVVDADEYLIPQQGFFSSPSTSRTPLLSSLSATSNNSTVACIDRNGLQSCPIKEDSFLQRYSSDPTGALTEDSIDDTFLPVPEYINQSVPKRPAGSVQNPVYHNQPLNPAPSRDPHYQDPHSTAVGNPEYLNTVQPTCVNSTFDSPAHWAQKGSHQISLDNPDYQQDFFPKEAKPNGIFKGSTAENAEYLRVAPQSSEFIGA
T1 sequence (P00533 whole entry): as the sequence (P00533 whole entry, looked up, stated change not applied) above
Sequence of Epidermal growth factor receptor (Homo sapiens, UniProt P00533, EX19DEL/T790M) (P00533 whole entry, looked up, stated change not applied): as above
Sequence of Epidermal growth factor receptor (Homo sapiens, UniProt P00533, C797S/EX19DEL/T790M) (P00533 whole entry, looked up, stated change not applied): as above

- IC50 (NCI-H1975): 159 nM
- inhibition [1]: 28.5%
- IC50 (HCC827 [2]): 896 nM
- IC50 (A549): 1860 nM
- inhibition [3]: 60.6%
Compound: COc1cc(Nc2ncc(Cl)c(Nc3ccsc3C(=O)NO)n2)cc(OC)c1OC

- IC50 (NCI-H1975): 15500 nM
- inhibition [1]: 14.4%
- IC50 (HCC827 [2]): 584 nM
- IC50 (A549): 18200 nM
- inhibition [3]: 32.2%
Compound: O=C(NO)c1sc2ccccc2c1Nc1nc(Nc2cccc(N3CCOCC3)c2)ncc1Br

- IC50 (NCI-H1975): 249 nM
- inhibition [1]: 36.1%
- IC50 (HCC827 [2]): 70 nM
- IC50 (A549): 557 nM
- inhibition [3]: 66%
Compound: O=C(NO)c1ccsc1Nc1nc(Nc2ccc(OCCN3CCOCC3)cc2)ncc1Cl

- IC50 (NCI-H1975): 162 nM
- inhibition [1]: 36.7%
- IC50 (HCC827 [2]): 45 nM
- IC50 (A549): 388 nM
- inhibition [3]: 64.9%
Compound: O=C(NO)c1ccsc1Nc1nc(Nc2ccc(CCN3CCOCC3)cc2)ncc1Cl

- IC50 (NCI-H1975): 247 nM
- inhibition [1]: 19.7%
- IC50 (HCC827 [2]): 346 nM
- IC50 (A549): 718 nM
- inhibition [3]: 51.3%
Compound: O=C(NO)c1ccsc1Nc1nc(Nc2ccc(OCCN3CCOCC3)cc2)ncc1Br

- IC50 (NCI-H1975): 331 nM
- inhibition [1]: 44.1%
- IC50 (HCC827 [2]): 33 nM
- IC50 (A549): 371 nM
- inhibition [3]: 70.9%
Compound: O=C(NO)c1ccsc1Nc1nc(Nc2ccc(CN3CCOCC3)cc2)ncc1Cl

- IC50 (NCI-H1975): 1670 nM
- inhibition [1]: 18.2%
- IC50 (HCC827 [2]): 1700 nM
- IC50 (A549): 18600 nM
- inhibition [3]: 32.7%
Compound: O=C(NO)c1ccsc1Nc1nc(Nc2ccc(N3CCOCC3)cc2)ncc1C(F)(F)F

- IC50 (NCI-H1975): 276 nM
- inhibition [1]: 32.8%
- IC50 (HCC827 [2]): 37 nM
- IC50 (A549): 650 nM
- inhibition [3]: 65.5%
Compound: O=C(NO)c1ccsc1Nc1nc(Nc2ccc(CCN3CCOCC3)cc2)ncc1Br

- IC50 (NCI-H1975): 524 nM
- inhibition [1]: 29.8%
- IC50 (HCC827 [2]): 335 nM
- IC50 (A549): 733 nM
- inhibition [3]: 53%
Compound: O=C(NO)c1ccsc1Nc1nc(Nc2ccc(OCCCN3CCOCC3)cc2)ncc1Br

- IC50 (NCI-H1975): 542 nM
- inhibition [1]: 15.9%
- IC50 (HCC827 [2]): 463 nM
- IC50 (A549): 5630 nM
- inhibition [3]: 50.2%
Compound: O=C(NO)c1ccsc1Nc1ccnc(Nc2ccc(N3CCOCC3)cc2)n1

- inhibition [4]: < 70%
- inhibition (Homo sapiens [5]): < 70%
- inhibition [6]: < 70%
- IC50 (NCI-H1975): 135 nM
- inhibition [1]: 47.8%
- inhibition [7]: < 70%
- inhibition [8]: < 70%
- inhibition [9]: < 70%
- inhibition [10]: < 70%
- IC50 [11]: 37.9 nM
- inhibition [12]: < 70%
- IC50 [16]: 72.3 nM
- inhibition (Homo sapiens [18]): < 70%
- inhibition [19]: < 70%
- inhibition [20]: 83.6%
- inhibition [21]: < 70%
- inhibition [24]: < 70%
- IC50 (HCC827 [2]): 31 nM
- inhibition [26]: < 70%
- IC50 [27]: 897 nM
- IC50 (A549): 230 nM
- IC50 [29]: 26.7 nM
- inhibition [3]: 73.3%
- IC50 [33]: 34.4 nM
- inhibition (Homo sapiens [34]): < 70%
Compound: O=C(NO)c1ccsc1Nc1nc(Nc2ccc(N3CCOCC3)cc2)ncc1Cl
- Activity (HCC827 [13]): 64.32%
- Activity (HCC827 [14]): 20.21%
- IC50 at 72 h [15]: 5030 nM
- Activity (HCC827 [17]): 25.12%
- Activity (HCC827 [22]): 14.08%
- Activity (HCC827 [23]): 65.79%
- IC50 at 72 h [25]: 15200 nM
- Activity (HCC827 [28]): 59.28%
- inhibition (HCC827 [30]): Active
- Activity (HCC827 [31]): 15.6%
- Activity (HCC827 [32]): 20.13%
- Activity (HCC827 [35]): 15.47%
